Measured values reported in ChEMBL document CHEMBL4616647, “PTP1B-Inhibiting Branched-Chain Fatty Acid Dimers from Eremophila oppositifolia subsp. angustifolia Identified by High-Resolution PTP1B Inhibition Profiling and HPLC-PDA-HRMS-SPE-NMR Analysis” (J Nat Prod, 2020).
Calls of active or inactive are those of the source. The rule behind the calls is not given here.

Columns and labels:
[1] = biological target: T1, Tyrosine-protein phosphatase non-receptor type 1 (Homo sapiens, UniProt P18031); assay: Inhibition of human recombinant PTP1B (1 to 322 residues) expressed in Escherichia coli using pNPP as substrate preincubated for 10 mins followed by substrate addition and measured after every 30 secs for 10 mins by photometric method
T1 sequence (P18031 whole entry): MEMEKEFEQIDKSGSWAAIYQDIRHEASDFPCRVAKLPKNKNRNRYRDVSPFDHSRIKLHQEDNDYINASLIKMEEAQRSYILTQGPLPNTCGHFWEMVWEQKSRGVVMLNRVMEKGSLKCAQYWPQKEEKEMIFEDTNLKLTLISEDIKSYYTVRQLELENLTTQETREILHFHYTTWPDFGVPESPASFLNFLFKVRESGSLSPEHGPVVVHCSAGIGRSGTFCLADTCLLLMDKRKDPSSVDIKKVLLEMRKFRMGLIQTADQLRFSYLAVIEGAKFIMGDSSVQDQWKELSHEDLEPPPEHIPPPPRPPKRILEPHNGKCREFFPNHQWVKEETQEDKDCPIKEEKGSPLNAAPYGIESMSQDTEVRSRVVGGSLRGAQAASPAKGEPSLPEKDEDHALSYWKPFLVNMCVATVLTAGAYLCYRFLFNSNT

[2] = biological target: T2, Tyrosine-protein phosphatase non-receptor type 1 (Homo sapiens) (UniProt P18031); assay: Inhibition of human recombinant PTP1B (1 to 322 residues) expressed in Escherichia coli by HPLC-PDA-HRMS-SPE-NMR analysis
T2 sequence (whole entry): T1 sequence (P18031 whole entry)

[3] = biological target: T1, Tyrosine-protein phosphatase non-receptor type 1; assay: Inhibition of PTP1B (unknown origin) using pNPP as substrate incubated for 30 mins by photometric method

IC50 [1] [µM]	inhibition [2]	IC50 [3] [µM]	SMILES
2.4	Active	–	CCCCCCC[C@H]1[C@H](/C(=C/C=C/C(=O)O)CO)[C@@H](/C=C/C(=O)O)C(COC(C)=O)=C[C@H]1CCCCCCC
163	–	–	CCCCCCC/C=C/C(=C/C=C/C(=O)O)CO
7.3	–	–	CCCCCCCCCCCCCCCC(=O)C1=C(O)[C@@H](CO)OC1=O
–	–	1.6	CCCCCCCCCCCCCCCCCCCC(=O)O [ARACHIDIC ACID]
–	–	6.2	CCCCCCCC/C=C\CCCCCCCC(=O)O [OLEIC ACID]
24	Active	–	CCCCCCC[C@@H]1[C@@H](/C(=C/C=C/C(=O)O)COC(C)=O)[C@@H](/C=C/C(=O)O)C(CO)=C[C@H]1CCCCCCC
144	–	–	C=C(/C=C/CCCCCCC)CCCC(=O)O
30	Active	–	CCCCCCC[C@@H]1[C@@H](/C(=C/C=C/C(=O)O)CO)[C@@H](/C=C/C(=O)O)C(COC(C)=O)=C[C@H]1CCCCCCC
66	Active	–	CCCCCCC/C=C/C(=C/[C@H]1[C@H](C(=O)O)[C@H](CCCCCCC)C=C(COC(C)=O)[C@@H]1/C=C/C(=O)O)COC(=O)O
–	–	1.4	CCCCCCCC/C=C\CCCCCCCCCC(=O)O
73	–	–	CCCCCCC/C=C/C(C)=C/C=C/C(=O)O
–	–	2.3	CCCCCCCCCCCCCCCCCC(=O)O [STEARIC ACID]
–	–	6.4	CCCCCC/C=C\CCCCCCCC(=O)O [PALMITOLEIC ACID]
12	Active	–	CCCCCCC[C@H]1[C@H](/C(=C/C=C/C(=O)O)COC(C)=O)[C@@H](/C=C/C(=O)O)C(COC(C)=O)=C[C@H]1CCCCCCC
12	Active	–	CCCCCCC[C@@H]1[C@@H](/C(=C/C=C/C(=O)O)COC(C)=O)[C@@H](/C=C/C(=O)O)C(COC(C)=O)=C[C@H]1CCCCCCC
38	–	–	CCCCCCC/C=C/C(=C\C=C\C(=O)O)COC(C)=O
–	–	8.8	CCCCCCCCCCCCCCCC(=O)O [PALMITIC ACID]
484	–	–	CCCCCCC/C=C/C(=C/C=C/C(=O)O)COC(C)=O
